Holding throughout (assay type): cell-based, human
Holding throughout (settings): treated 72 hr

One assay concerns AKT. In words: Western blot of phosphorylated and total AKT in drug-treated CAID cells. As to the method:
(§1) 195. We were interested in determining the effect of treatment with adriamycin, docetaxel, or paclitaxel on the levels of TOLL-2 and TROLL-3. qRT-PCR was performed for TROLL-2 and TROLL-3 in CAID cells treated with the indicated drugs for 72 hr. Western blosts of the levels of phosphorylated and total AKT, and relative quantification were determined (FIG. 1). […] We next observed that the levels of TROLL-3 are higher in lung adenocarcinoma (LUAD) with EGFR mutations with EGFR mutations in 2 distinct cohorts of patients (the TCGA cohort and Moffitt cohort) (FIGS. 2 and 3). Next we looked at the association association between pAKT levels and resistance to treatment in a panel of LUAD cell lines. Western blot levels of phosphorylated and total AKT in the indicated cell lines. Red boxes denote cell lines where PAKT levels are higher in the cells resistant to the indicated inhibitors compared to the respective parental cells (FIG. 4). Such increase in pAKT levels is associated with the resistance to anti-cancer treatment. To see the effect of TROLL-2 or TROLL-3 downregulation of pAKT levels in LUAD cells, we prefromed western blosts of the lvels of phosphorylated and total AKT in parental and KRASi resistant or EGFRi resistant cells using untreated on siRNA knockdown of TROLL-2 or TROLL-3 (FIGS. 5 and 6). We observed that downregulation of TROLL-2 or TROLL-3 reduces pAKT levels in KRASi and EGFRi resistant LUAD cells. Next we identified antisense LNA GapmeRs targeting TROLL-2 and TROLL-3 (50 nM-2 experiments). We used […]-PCR (qRT-PCR) for TROLL-2 and TROLL-3 in CAID cells treated with the indicated Antisense LNA GapmeRs for 48 hr. The following reagents were purchased from Qiagen: negative control=LG00000002-DDB, TROLL-2 A=LG00807687-DDB. TROLL-2 B=LG00807688-DDB, TROLL-2 C=LG00807689-DDB. TROLL-2 D=LG00807691-DDB, TROLL-2 E=LG00807694-DDB, TROLL-3 A=LG00807697-DDB, TROLL-3 B=LG00807698-DDB, TROLL-3 C=LG00807699-DDB, TROLL-3 D=LG00807700-DDB, and TROLL-3 E=LG00807701-DDB (FIG. 7). […]
A general note: A western blot detects proteins with antibodies after separation by electrophoresis.

The subject of the next assay is TROLL-2. In words: qRT-PCR for TROLL-2 in CAID cells treated with the indicated drugs. The protocol: as §1
(In general: Quantitative PCR measures a nucleic acid by following its amplification.)

The subject of the next assay is TROLL-3. In words: qRT-PCR for TROLL-3 in CAID cells treated with the indicated drugs. As to the method:
as §1

Each structure is given as a SMILES string.

For the molecule `COc1cccc2c1C(=O)c1c(O)c3c(c(O)c1C2=O)C[C@@](O)(C(=O)CO)C[C@@H]3O[C@H]1C[C@H](N)[C@H](O)[C@H](C)O1` [adriamycin], in the assay on AKT, the “AKT pathway activation (phosphorylated and total AKT, western blot)” value (from here on “AKT pathway activation”) is reported as “activation of the AKT pathway”. Also, in the assay with TROLL-2, the “levels of TROLL-2 (qRT-PCR)” value is on record as “increases”. The “levels of TROLL-3 (qRT-PCR)” value with TROLL-3 is on record as “increases”.

For `CC(=O)O[C@@]12CO[C@@H]1C[C@H](O)[C@@]1(C)C(=O)[C@H](O)C3=C(C)[C@@H](OC(=O)[C@H](O)[C@@H](NC(=O)OC(C)(C)C)c4ccccc4)C[C@@](O)([C@@H](OC(=O)c4ccccc4)[C@H]21)C3(C)C` [docetaxel], the “AKT pathway activation” value in the assay on AKT was “activation of the AKT pathway”. Besides, the “levels of TROLL-2 (qRT-PCR)” value in the assay on TROLL-2 is recorded as “increases”. Further, the “levels of TROLL-3 (qRT-PCR)” value in the assay with TROLL-3 is “increases”.

As for `CC(=O)O[C@H]1C(=O)[C@@]2(C)[C@H]([C@H](OC(=O)c3ccccc3)[C@]3(O)C[C@H](OC(=O)[C@H](O)[C@@H](NC(=O)c4ccccc4)c4ccccc4)C(C)=C1C3(C)C)[C@]1(OC(C)=O)CO[C@@H]1C[C@@H]2O` [paclitaxel], in the assay with AKT, the “AKT pathway activation” value is “activation of the AKT pathway”. The “levels of TROLL-2 (qRT-PCR)” value with TROLL-2 is listed as “increases”. Besides, the “levels of TROLL-3 (qRT-PCR)” value in the assay with TROLL-3 is given as “increases”.
